Measured values: patent publication US9561228B2 (Celgene Avilomics Research, Inc., priority 2013, dated 2017)
Read-outs that look alike come from different tables or passages of the source.

How the values were obtained:
[1] = target: T1, MEK1 activated ERK1 (Homo sapiens, UniProt P27361); assay: Omnia continuous-read kinase assay for potency against MEK1 activated ERK1; format: biochemical
T1 construct: purchased Millipore (Billerica, Mass.) 14-439-K
Method in brief: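 Apparent IC50 came from initial reaction slopes (RFU vs time) plotted against log inhibitor with a variable-slope fit. Reactions were started with ERK1 (4 nM final) added to 50 μM ATP, roughly at its appKM, and 10 μM Sox-conjugated ST17 peptide in 20 mM Tris pH 7.5, 5 mM MgCl2. Fluorescence was monitored every 71 seconds.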

[2] = test system: ERK1/2 phosphorylation of p90RSK in HCT116 cells; assay: Detection of total and phospho-RSK by MSD ELISA (HCT116); format: cell-based; details: Homo sapiens, HCT-116, read-out: ERK1/ERK2 PRSK HCT116 EC50
Protocol: Detection of Total and Phospho-RSK by MSD ELISA (HCT116)
(§1) The protocol below describes an assay to measure the kinase activity of ERK1/2 to phosphorylate a substrate, p90RSK, in the presence or absence of a test compound.
HCT116 cells were grown in RPMI/10% FBS. Prior to the assay, 50,000 cells per well were plated in a 96 well flat bottom plate. Cells were cultured overnight in an incubator at 37° C.
Compound stocks were 10 mM in DMSO. A 1000× dilution was made in DMSO. 1 uL of the DMSO solution was transferred to 1 ml RPMI/10% FBS in a deep well plate. Media in the cell plate was discarded, and 100 uL of the compound-containing media was added. The preparation was incubated at 37° C. for 2 hrs.
Preparation of cell lysates are described below.
pRSK or total RSK MSD Assay
(§2) MSD plates: Blank MSD plates were coated with 30 uL capture antibody (BD 610226) at a final concentration of 1 ug/mL in PBS. Both pRSK and total RSK MSD assays used the same capture antibody at the same concentration. Antibody stock concentration was 250 ug/mL. Once antibody solution was added to MSD plate, the sides were tapped to be certain it was coated completely (visual inspection). It was then covered and placed at 4° C. overnight on a level surface.
Block MSD Plate: The coating antibody was removed and the plate was washed on a plate washer in MSD wash buffer. The last bit of wash solution was tapped out and 150 uL/well 3% BSA (MSD Blocker A) in MSD wash buffer was added. The preparation was placed on a shaker at room temperature for at least an hour.
Add samples: Media was removed from compound-treated cells and replaced with 55 uL/well MSD cell lysis buffer containing protease and phosphotase I & II inhibitors. The preparations was incubate on a shaker in a cold room for 30-45 min. The blocked MSD plate was washed on a plate washer, and the last bit of wash solution was tapped out. Next was added 50 uL (of the 55 uL) cell lysate in a well-well transfer. The preparation was covered and incubated on shaker at room temp for 2 hours. The lysate was then removed and washed on plate washer 3 times. The last bit of wash buffer was then tapped out and replaced with 25 uL/well detection antibody (described below).
For pRSK detection, a pRSK antibody stock of 21 ug/mL was prepared as follows: 1 ug/mL pRSK Ser380 antibody (Cell Signaling Technology, Cat. #9335)+1:750 anti-rabbit SulfoTag (from MSD, R32AB-1) in 1% BSA in MSD wash buffer.
(§3) For total RSK detection, a total RSK antibody stock of 200 ug/mL was prepared as follows: 1 ug/mL total RSK (Santa Cruz sc-231G) antibody+1:750 anti-goat SulfoTag (from MSD, R32AG-1) in 1% BSA in MSD wash buffer.
The plate was incubated for 1 hr at room temperature on a shaker, followed by three washes. The last bit of wash buffer was tapped out. Next, 150 uL/well 1×MSD Read buffer was added and the plate was analyzed by the MSD reader.

[3] = test system: ERK1/2 phosphorylation of p90RSK in A375 cells; assay: Detection of total and phosphor-RSK by MSD ELISA (A375); format: cell-based; details: Homo sapiens, A-375, read-out: ERK1/ERK2 PRSK A375 EC50
Protocol: Detection of Total and Phosphor-RSK by MSD ELISA (A375)
as §1
A375 cells were grown in DMEM/10% FBS. Twenty four hours prior to the assay, 50,000 cells per well were plated in a 96 well flat bottom plate. Once cells attached to the plate, the medium was replaced with 100 ul of DMEM/0.1% FBS. Cells were cultured overnight in an incubator at 37° C.
Compound stock solutions of 10 mM in DMSO were prepared. 1000× dilutions were then prepared in DMSO. 1 uL of DMSO solution was then transferred to 1 ml DMEM/0.1% FBS in a deep well plate. Cell plate media was discarded, followed by addition of 100 uL of the compound-containing media. The preparation was incubated at 37° C. for 2 hrs.
Cell lysates were prepared as described below.
pRSK or Total RSK MSD Assay
as §2, with “added to the MSD plate,” for “added to MSD plate,”
Block MSD Plate: The coating antibody was removed and the plate was washed on a plate washer in MSD wash buffer. The last bit of wash solution was tapped out and 150 uL/well of 3% BSA in MSD wash buffer was added in. The preparation was placed on a shaker at room temperature for at least an hour.
Add samples: Media was removed from compound-treated cells and replaced with 55 uL/well MSD cell lysis buffer containing protease and phosphotase I & II inhibitors. The preparation was incubated on a shaker in a cold room for 30-45 min. The blocked MSD plate was washed a on plate washer, tapping out the last bit of wash solution, followed by addition of 50 uL (of the 55 ul) cell lysate in a well-well transfer. The preparation was covered and incubated on a shaker at room temp for 2 hours. The lysate was removed, washed on a plate washer 3 times, and the last bit of wash buffer was tapped out and replace with 25 uL/well detection antibody (described below).
For pRSK detection, a pRSK antibody stock of 21 ug/mL was prepared as follows: 1 ug/mL pRSK Ser380 antibody (Cell Signaling Technology, Cat. #9335)+1:750 anti-rabbit SulfoTag (Mesoscale Discovery, Cat. # R32AB-1) in 1% BSA in MSD wash buffer.
as §3
The plate was incubated for 1 hr at room temperature on a shaker, followed by three washings. The last bit of wash buffer was tapped out. 150 uL/well 1×MSD Read buffer was added and the plate was then analyzed.

[4] = test system: ERK1/2 phosphorylation of p90RSK in HT29 cells; assay: pRSK MSD Assay in HT29 cells; format: cell-based; details: Homo sapiens, HT-29, read-out: ERK1/ERK2 PRSK MSD HT29 EC50
Method in brief: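 Serum-starved HT29 cells (0.1% FBS overnight) treated with test compound for 120 min at 37° C, then lysed with protease and phosphatase inhibitors. Phospho-p90RSK quantified by MSD sandwich immunoassay: RSK capture antibody, phospho-RSK detection antibody plus Sulfo-tagged antibody, electrochemiluminescence read.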

T1 sequence (P27361 whole entry): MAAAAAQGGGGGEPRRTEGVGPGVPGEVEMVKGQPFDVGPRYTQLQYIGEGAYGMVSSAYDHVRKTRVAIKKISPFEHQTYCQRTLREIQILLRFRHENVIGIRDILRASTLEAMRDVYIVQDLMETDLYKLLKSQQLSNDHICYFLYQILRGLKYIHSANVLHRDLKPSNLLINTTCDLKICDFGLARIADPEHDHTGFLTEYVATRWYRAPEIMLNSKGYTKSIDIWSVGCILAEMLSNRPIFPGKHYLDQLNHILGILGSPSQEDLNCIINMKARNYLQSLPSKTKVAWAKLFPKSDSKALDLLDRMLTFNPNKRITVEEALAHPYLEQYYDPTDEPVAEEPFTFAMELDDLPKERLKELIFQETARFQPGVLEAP

Row | SMILES | IC50 ([1]; ATP at KM, WT) [nM] | EC50 [2] [nM] | EC50 [3] [nM] | EC50 [4] [nM] | IC50 ([1]; MEK1 activated ERK1, ATP at KM, read-out: ERK1 Omnia WT ATP KM IC50) [nM]
1 | C=CC(=O)Nc1cc(C)ccc1Nc1nc(Nc2cc(OC)nn2C)ncc1C(F)(F)F [Compound I-430, N-(2-((2-((3-methoxy-1-methyl-1H-pyrazol-5-yl)amino)-5-(trifluoromethyl)pyrimidin-4-yl)amino)-5-methylphenyl)acrylamide] | 501 to 999 | 501 to 999 | 501 to 999 |  | 
2 | C#CCOc1cc(C)c(Nc2ncc(C(F)(F)F)c(Nc3ccc(C)cc3NC(=O)C=C)n2)cc1C(N)=O [Compound I-362, 5-((4-((2-acrylamido-4-methylphenyl)amino)-5-(trifluoromethyl)pyrimidin-2-yl)amino)-4-methyl-2-(prop-2-yn-1-yloxy)benzamide] |  | > 1000 | 501 to 999 | 501 to 999 | 
3 | C=CC(=O)Nc1cc(C)ccc1Nc1nc(Nc2cnnc(OC)c2)ncc1C(F)(F)F [Compound I-335, N-(2-((2-((6-methoxypyridazin-4-yl)amino)-5-(trifluoromethyl)pyrimidin-4-yl)amino)-5-methylphenyl)acrylamide] |  | 501 to 999 | 501 to 999 | 501 to 999 | 
4 | C=CC(=O)Nc1cc(C)ccc1Nc1nc(N[C@H]2CCN(S(=O)(=O)C=C)C2)ncc1C(F)(F)F [Compound I-279, (S)—N-(5-Methyl-2-((5-(trifluoromethyl)-2-((1-(vinylsulfonyl)pyrrolidin-3-yl)amino)pyrimidin-4-yl)amino)phenyl)acrylamide] |  | > 1000 | > 1000 |  | 501 to 999

Results, then the compound that gave them:

Row | IC50 ([1]; ATP at KM, WT) [nM] | EC50 [2] [nM] | EC50 [3] [nM] | EC50 [4] [nM] | IC50 ([1]; MEK1 activated ERK1, ATP at KM, read-out: ERK1 Omnia WT ATP KM IC50) [nM] | SMILES
5 | > 1000 | 501 to 999 | 101 to 500 |  |  | C=CC(=O)Nc1cc(C)ccc1Nc1nc(Nc2cc(OC)ncc2CF)ncc1C(F)(F)F [Compound I-429, N-(2-((2-((5-(fluoromethyl)-2-methoxypyridin-4-yl)amino)-5-(trifluoromethyl)pyrimidin-4-yl)amino)-5-methylphenyl)acrylamide]
6 | > 1000 | 101 to 500 | 101 to 500 |  |  | C=CC(=O)Nc1cc(C)ccc1Nc1nc(Nc2cc(OC)ncc2CO)ncc1C(F)(F)F [Compound I-428, N-(2-((2-((5-(hydroxymethyl)-2-methoxypyridin-4-yl)amino)-5-(trifluoromethyl)pyrimidin-4-yl)amino)-5-methylphenyl)acrylamide]
7 |  | 101 to 500 | 101 to 500 | < 100 |  | C=CC(=O)Nc1cc(C)ccc1Nc1nc(Nc2cc(OC)nc(N3CCC(O)CC3)c2)ncc1C(F)(F)F [Compound I-332, N-(2-((2-((2-(4-hydroxypiperidin-1-yl)-6-methoxypyridin-4-yl)amino)-5-(trifluoromethyl)pyrimidin-4-yl)amino)-5-methylphenyl)acrylamide]
8 |  | 101 to 500 | 101 to 500 | 101 to 500 |  | C=CC(=O)Nc1cc(OCC(=O)N2CCN(C(C)=O)CC2)ccc1Nc1nc(Nc2cc(OC)ncc2C)ncc1C(F)(F)F [Compound I-404, N-(5-(2-(4-acetylpiperazin-1-yl)-2-oxoethoxy)-2-((2-((2-methoxy-5-methylpyridin-4-yl)amino)-5-(trifluoromethyl)pyrimidin-4-yl)amino)phenyl)acrylamide]
